Reference: patent publication US20110165136A1, “Novel Herbal Composition for Treatment of Psoriasis and Other Skin Disorders” (HIMALAYA GLOBAL HOLDINGS LTD., priority 2010, published 2011)

System: Mouse tail
Experiment: Topical anti-psoriatic activity by Mouse tail test
Type: in vivo
Details: follow up study, 0.005%
Source text: Pharmacological Screening of the Extracts and Oils for Topical Anti-Psoriatic Activity by Mouse Tail Test The composite extracts, oils blends and individual alcohol extracts were subjected to screening for evaluation of Anti-psoriatic activity by Mouse tail test and the results are summarized as FIG. 1-4.

Structure (SMILES): C=C1/C(=C\C=C2/CCC[C@]3(C)[C@@H]([C@H](C)/C=C/[C@@H](O)C4CC4)CC[C@@H]23)C[C@@H](O)C[C@@H]1O [Calcipotriol]
- para to orthokeratosis conversion: not found to be statistically significant
